Reference: US20250129012A1, “ANTI-INFLAMMATORY AND ANALGESIC COMPOUNDS AND USE THEREOF” (JIANGSU ATOM BIOSCIENCE AND PHARMACEUTICAL CO., LTD., priority 2021, published 2025)
Where two headings read alike, the source gives them in different places. Marks after values point to notes of the source that are not given here.

Experiments:
[1] = test system: gouty arthritis rats (sodium urate, right ankle and knee joint cavities); assay: Pharmacodynamics experiment B on gouty arthritis rats: gait score; type: in vivo, SD rats; conditions: for Gait Score: dose 0.6 mg/kg gavage, mean; for Gait versus model group, in words: compounds 0.6 mg/kg, colchicine 0.6 and 1.2 mg/kg
Method: (§1) Compounds 12, 16, 19, 30, 34, 36, 38, 40, 44, 48, 49, 52, 58, 69, 83, 98, 102, 119, 121, and 122 were prepared by grinding with 0.5% CMC-Na prior to administration and formulated into suspensions of appropriate concentration (0.12 mg/mL) for gavage, with an administered dose of 0.5 mL/100 g.
(§2) 240 SD rats, males, were acclimatized for one week and weighed 180-220 g. […] The dose of each compound group was 0.6 mg/kg. The compounds in each group were prepared into the corresponding concentration suspension, and the volume of administration was 10 mL/kg.
(§3) 250 mg of sodium urate were added to 9 mL of saline, and 1 mL of Tween-80 solution was added, the resulting mixture was heated and stirred to formulate 10 mL of sodium urate solution. The rats were grasped and fixed, and 0.2 mL of sodium urate solution was injected into the right ankle and knee joint cavities respectively to establish gouty arthritis rat model.
(§4) Before modeling, positive drug and tested compounds were pre-administered for 7 days, once a day, and modeling was performed on day 8, and drug administration by gavage continued for 3 days after modeling.
Gait was scored according to the modified gait grading criteria introduced by Coderre et al. The gait of each rat was observed before and 2 h, 4 h, 8 h, 10 h, 24 h and 48 h after modeling and graded scoring was performed. The gait grading criteria were as follows: 0 point, normal walking; 1 point, slight lameness, the lower limbs were slightly bent; 2 points: moderate lameness, the lower limbs just touched the ground; 3 points, severe lameness, the lower limbs left the ground, and walked on three feet. The mean score of each group was calculated and compared with that of the model group.
(§5) Each experimental data was expressed as the mean, and intergroup comparisons were examined for significance using the ANOVA-Dunnett T-test, with P<0.05 as the significance indicator.

[2] = test system: gouty arthritis rats (sodium urate, right ankle and knee joint cavities); assay: Pharmacodynamics experiment B on gouty arthritis rats: ankle swelling rate; type: in vivo, SD rats; conditions: Rattus norvegicus, po, read-out: Swelling rate (ankle)
Method: as §1, §2, §3, §4
Before modeling and 2 h, 4 h, 8 h, 10 h, 24 h and 48 h after modeling, the circumference of the right ankle joint was measured using a soft ruler or the volume change at the ankle was measured (volumetric method), and the swelling degree and swelling rate of ankle joint were calculated:
Swelling degree (mm)=measured circumference (mm)−baseline circumference (mm)
Swelling rate (%)=swelling degree (mm)/baseline circumference (mm)×100%
as §5

[3] = In vivo pharmacokinetics in SD rats; conditions: Sprague-Dawley, rat, in vivo
Method: Compound stock solution preparation: an appropriate amount of solid powder of the compounds were weighed separately, a certain amount of DMSO was added and 20 mg/mL of stock solution was obtained under vortex ultrasound.
Preparation of test compound for gavage: an appropriate amount of compound stock solution was taken by pipette, a certain amount of Solutol HS15 solution was added, the mixture was vortexed for 1 minute, then a certain amount of saline was added, and 1 mg/mL of solution was obtained after mixing well.
Preparation of test compounds for intravenous injection: an appropriate amount of compound stock solution was taken by pipette separately, a certain amount of Solutol HS15 solution was added, the mixture was vortexed for 1 minute, then a certain amount of physiological saline was added and a solution of 0.5 mg/mL was obtained after mixing well.
The animals were fasted overnight before administration by gavage, and food was given 4 hours after administration, during which they were free to drink. Two groups were set for each test compound, intravenous injection group and oral administration group, and the dose and mode of administration were shown in Table 12 below.
The blood samples were centrifuged at 4° C. for 5 min at 2,000 g to separate the plasma. The plasma samples were analyzed by LC/MS/MS to detect the concentration of each test compound in the plasma samples.
The parameters related to the […] were obtained by calculations with WinNonlin® Professional software.

COc1cc2c(c(OC)c1OC)-c1cc(I)c(OC)c(=O)cc1[C@@H](NC(C)=O)CC2 [Compound 12, (S)—N-(11-iodo-1,2,3,10-tetramethoxy-9-oxo-5,6,7,9-tetrahydrobenzo[a]heptalen-7-yl)acetamide]
Gait Score ([1]; 2 h): 0
Gait Score ([1]; 4 h): 0
Gait Score ([1]; 8 h): 0*
Gait Score ([1]; 10 h): 0*
Gait Score ([1]; 24 h): 0
Gait Score ([1]; 48 h): 0
Gait versus model group, in words [1]: significant improvement in gait occurred at different time points
change in vivo at 0.6 mg/kg ([2]; 2 h): 10.8%
change in vivo at 0.6 mg/kg ([2]; 4 h): 16.5%
change in vivo at 0.6 mg/kg ([2]; 8 h): 18.7%
change in vivo at 0.6 mg/kg ([2]; 10 h): 31.4%
change in vivo at 0.6 mg/kg ([2]; 24 h): 22.8%
change in vivo at 0.6 mg/kg ([2]; 48 h): 15%

COc1cc2c(c(OC)c1OC)-c1cc(C)c(OC)c(=O)cc1[C@@H](NC(C)=O)CC2 [Compound 16, (S)—N-(1,2,3,10-tetramethoxy-11-methyl-9-oxo-5,6,7,9-tetrahydrobenzo[a]heptalen-7-yl)acetamide]
Gait Score ([1]; 2 h): 0
Gait Score ([1]; 4 h): 0.1
Gait Score ([1]; 8 h): 0*
Gait Score ([1]; 10 h): 0*
Gait Score ([1]; 24 h): 0
Gait Score ([1]; 48 h): 0
Gait versus model group, in words [1]: significant improvement in gait occurred at different time points
change in vivo at 0.6 mg/kg ([2]; 2 h): 9.71%
change in vivo at 0.6 mg/kg ([2]; 4 h): 13%
change in vivo at 0.6 mg/kg ([2]; 8 h): 17.8%
change in vivo at 0.6 mg/kg ([2]; 10 h): 17.4%
change in vivo at 0.6 mg/kg ([2]; 24 h): 18.6%
change in vivo at 0.6 mg/kg ([2]; 48 h): 6.17%

COc1cc2c(c(OC)c1OC)-c1cc(C)c(O[C@H]3CCOC3)c(=O)cc1[C@@H](NC(C)=O)CC2 [Compound 30, N—{(S)-1,2,3-trimethoxy-11-methyl-9-oxo-10-{[(S)-tetrahydrofuran-3-yl]oxy}-5,6,7,9-tetrahydrobenzo[a]heptalen-7-yl}acetamide]
Gait Score ([1]; 2 h): 0
Gait Score ([1]; 4 h): 0
Gait Score ([1]; 8 h): 0*
Gait Score ([1]; 10 h): 0*
Gait Score ([1]; 24 h): 0.3
Gait Score ([1]; 48 h): 0
Gait versus model group, in words [1]: significant improvement in gait occurred at different time points
change in vivo at 0.6 mg/kg ([2]; 2 h): -4.04%
change in vivo at 0.6 mg/kg ([2]; 4 h): 1.2%
change in vivo at 0.6 mg/kg ([2]; 8 h): 0.57%
change in vivo at 0.6 mg/kg ([2]; 10 h): 6.69%
change in vivo at 0.6 mg/kg ([2]; 24 h): 9.77%
change in vivo at 0.6 mg/kg ([2]; 48 h): -1.34%

COc1cc2c(c(OC)c1OC)-c1ccc(OCC(F)(F)F)c(=O)cc1[C@@H](NC(C)=O)CC2 [Compound 36, (S)—N-{1,2,3-trimethoxy-9-oxo-10-(2,2,2-trifluoroethoxy)-5,6,7,9-tetrahydrobenzo[a]heptalen-7-yl}acetamide]
Gait Score ([1]; 2 h): 0
Gait Score ([1]; 4 h): 0
Gait Score ([1]; 8 h): 0*
Gait Score ([1]; 10 h): 0*
Gait Score ([1]; 24 h): 0.2
Gait Score ([1]; 48 h): 0.1
Gait versus model group, in words [1]: significant improvement in gait occurred at different time points
change in vivo at 0.6 mg/kg ([2]; 2 h): -3.59%
change in vivo at 0.6 mg/kg ([2]; 4 h): 2.37%
change in vivo at 0.6 mg/kg ([2]; 8 h): 2.62%
change in vivo at 0.6 mg/kg ([2]; 10 h): 10.4%
change in vivo at 0.6 mg/kg ([2]; 24 h): 10%
change in vivo at 0.6 mg/kg ([2]; 48 h): -2.54%

COC(=O)c1cc2c(cc(=O)c1OC)[C@@H](NC(C)=O)CCc1cc(OC)c(OC)c(OC)c1-2 [Compound 40, methyl (S)-7-acetamido-1,2,3,10-tetramethoxy-9-oxo-5,6,7,9-tetrahydrobenzo[a]heptalen-11-carboxylate]
Gait Score ([1]; 2 h): 0
Gait Score ([1]; 4 h): 0
Gait Score ([1]; 8 h): 0*
Gait Score ([1]; 10 h): 0*
Gait Score ([1]; 24 h): 0.4
Gait Score ([1]; 48 h): 0
Gait versus model group, in words [1]: significant improvement in gait occurred at different time points
change in vivo at 0.6 mg/kg ([2]; 2 h): 5.81%
change in vivo at 0.6 mg/kg ([2]; 4 h): 7.96%
change in vivo at 0.6 mg/kg ([2]; 8 h): 11.2%
change in vivo at 0.6 mg/kg ([2]; 10 h): 9.9%
change in vivo at 0.6 mg/kg ([2]; 24 h): 21.7%
change in vivo at 0.6 mg/kg ([2]; 48 h): 9.33%

COc1cc2c(c(OC)c1OC)-c1ccc(N3CCCC3=O)c(=O)cc1[C@@H](NC(C)=O)CC2 [Compound 52, (S)—N-[1,2,3-trimethoxy-9-oxo-10-(2-oxo-pyrrolidin-1-yl)-5,6,7,9-tetrahydrobenzo[a]heptalen-7-yl]acetamide]
Gait Score ([1]; 2 h): 0
Gait Score ([1]; 4 h): 0
Gait Score ([1]; 8 h): 0*
Gait Score ([1]; 10 h): 0*
Gait Score ([1]; 24 h): 0
Gait Score ([1]; 48 h): 0
Gait versus model group, in words [1]: significant improvement in gait occurred at different time points
change in vivo at 0.6 mg/kg ([2]; 2 h): 11%
change in vivo at 0.6 mg/kg ([2]; 4 h): 9.83%
change in vivo at 0.6 mg/kg ([2]; 8 h): 11.8%
change in vivo at 0.6 mg/kg ([2]; 10 h): 30.2%
change in vivo at 0.6 mg/kg ([2]; 24 h): 22%
change in vivo at 0.6 mg/kg ([2]; 48 h): 7.88%

[2H]C([2H])([2H])NC(=O)c1ccc2c(cc1=O)[C@@H](NC(C)=O)CCc1cc(OC)c(OC)c(OC)c1-2 [Compound 56, (S)-7-acetamido-1,2,3-trimethoxy-N-(trideuterio)methyl-9-oxo-5,6,7,9-tetrahydrobenzo[a]heptalen-10-carboxamide]
F ([3]; 10 mg/kg): 62.3%
AUC(0-inf) ([3]; iv, 1 mg/kg): 597 ng·h/mL
MRT inf ([3]; iv, 1 mg/kg): 34.9 min
Vd ([3]; iv, 1 mg/kg): 0.977 L/kg
clearance ([3]; iv, 1 mg/kg): 28.7 mL/min/kg
half-life ([3]; iv, 1 mg/kg): 35.4 min
AUC(0-inf) ([3]; po, 10 mg/kg): 3720 ng·h/mL
Cmax ([3]; po, 10 mg/kg): 1640 ng/mL
MRT inf ([3]; po, 10 mg/kg): 132 min
Tmax ([3]; po, 10 mg/kg): 25 min
half-life ([3]; po, 10 mg/kg): 76.2 min

COc1cc2c(c(OC)c1OC)-c1ccc(C(=O)N3CCOCC3)c(=O)cc1[C@@H](NC(C)=O)CC2 [Compound 83, (S)—N-{1,2,3-trimethoxy-10-(morpholine-4-carbonyl)-9-oxo-5,6,7,9-tetrahydrobenzo[a]heptalen-7-yl}acetamide]
Gait Score ([1]; 2 h): 0
Gait Score ([1]; 4 h): 0
Gait Score ([1]; 8 h): 0*
Gait Score ([1]; 10 h): 0*
Gait Score ([1]; 24 h): 0
Gait Score ([1]; 48 h): 0
Gait versus model group, in words [1]: significant improvement in gait occurred at different time points
change in vivo at 0.6 mg/kg ([2]; 2 h): 8.31%
change in vivo at 0.6 mg/kg ([2]; 4 h): 10.4%
change in vivo at 0.6 mg/kg ([2]; 8 h): 16.6%
change in vivo at 0.6 mg/kg ([2]; 10 h): 21.1%
change in vivo at 0.6 mg/kg ([2]; 24 h): 26.3%
change in vivo at 0.6 mg/kg ([2]; 48 h): 15.3%

CNC(=O)c1ccc2c(cc1=O)[C@@H](NC(=O)C1CC1)CCc1cc(OC)c(OC)c(OC)c1-2 [Compound 102, (S)-7-(3-cyclopropylcarbonylamino)-1,2,3-trimethoxy-N-methyl-9-oxo-5,6,7,9-tetrahydrobenzo[a]heptalen-10-carboxamide]
Gait Score ([1]; 2 h): 0
Gait Score ([1]; 4 h): 0
Gait Score ([1]; 8 h): 0.27
Gait Score ([1]; 10 h): 0.09*
Gait Score ([1]; 24 h): 0
Gait Score ([1]; 48 h): 0
change in vivo at 0.6 mg/kg ([2]; 2 h): 14.1%
change in vivo at 0.6 mg/kg ([2]; 4 h): 13.6%
change in vivo at 0.6 mg/kg ([2]; 8 h): 14.4%
change in vivo at 0.6 mg/kg ([2]; 10 h): 19.3%
change in vivo at 0.6 mg/kg ([2]; 24 h): 16.7%
change in vivo at 0.6 mg/kg ([2]; 48 h): 9.4%

[2H]C([2H])([2H])Oc1cc2c(c(OC)c1OC([2H])([2H])[2H])-c1ccc(C(=O)NC)c(=O)cc1[C@@H](NC(C)=O)CC2 [Compound 124, (S)-7-acetamido-1-methoxy-2,3-bis(trideuteromethoxy)-N-methyl-9-oxo-5,6,7,9-tetrahydrobenzo[a] heptalen-10-carboxamide]
F ([3]; 10 mg/kg): 44.7%
AUC(0-inf) ([3]; iv, 1 mg/kg): 756 ng·h/mL
MRT inf ([3]; iv, 1 mg/kg): 39.1 min
Vd ([3]; iv, 1 mg/kg): 0.864 L/kg
clearance ([3]; iv, 1 mg/kg): 22.3 mL/min/kg
half-life ([3]; iv, 1 mg/kg): 38.6 min
AUC(0-inf) ([3]; po, 10 mg/kg): 3380 ng·h/mL
Cmax ([3]; po, 10 mg/kg): 2260 ng/mL
MRT inf ([3]; po, 10 mg/kg): 103 min
Tmax ([3]; po, 10 mg/kg): 20 min
half-life ([3]; po, 10 mg/kg): 82.8 min
